Measured values: patent publication US12680081B2, “Human induced pluripotent stem cell line transformed with fluorescent protein-labeled cytochrome P450 and AHR modulator screening method using same” (priority 2020, dated 2026)
Counter-ions that a name gives are not always drawn.

How the values were obtained:
[1] = tested on: AHR-CYP1A1 axis; test: High-content screening (HCS) of mCherry intensity in live CYP1A1-mCherry HLCs; details: for inhibition of the effect of TCDD on mCherry expression: human
Experimental: 9. Chemical Treatment and High-Content Screening (HCS)
To perform HCS, the cells differentiated for 10 days were dissociated, plated in a Matrigel®-coated 96-well plate, and cultured for maturation. […] DMSO was used as a vehicle control. For staining the live cell nucleus, cells were cultured with 2 μg/ml of Hoechst 33342 (Life Technologies) for 10 minutes. Stained cells were imaged using ImageXpress Micro XLS Widefield High-Content Analysis System (Molecular Devices, San Jose, Calif., USA). The acquired images were analyzed using MetaXpress High-Content Image Acquisition and Analysis Software (Molecular Devices) according to disclosed methods. For analysis, cells were first identified using Hoechst staining and mCherry intensity was detected to measure CYP1A1 expression.

[2] = tested on: CYP1A1-mCherry HLC; test: Cell viability analysis (cell counting Kit-8); format: cell-based; details: working concentration 10 μM, 24 hours, FIG. 10b
Experimental: 11. Cell Viability Analysis
To analyze cell viability, target chemicals (10 μM) were treated for 24 hours prior to performing cell viability analysis. Then, 10 μl of cell counting Kit-8 was added to 100 μl of the medium, followed by incubation for 2 hours. Absorbance was measured at 450 nm using an iMark™ microplate absorbance reader (Bio-Rad). Cell viability was calculated using the following formula: Cell viability (%)=(Asample−Ablank)/(Acontrol−Ablank)×100

[3] = tested on: CYP1A1; test: Ethoxyresorufin-O-deethylase (EROD) analysis of CYP1A1 activity in CYP1A1-mCherry HLCs; details: for inhibition of the effect of TCDD on CYP1A1 activity: FIG. 10d
Experimental: Ethoxyresorufin-O-Deetylase (EROD) Analysis
To measure the CYP1A1 activity, cells were cultured in a serum-free medium for 24 hours before treatment. The cells were treated with 7.5 μM ethoxyresorufin in the presence or absence of 10 μM dicumarol (inhibitor) in HBSS for 7.5, 15, 30 and 60 minutes, and 100 μl of the medium was removed into a new microcentrifuge tube. The same amount (100 μl) of ice-cold acetonitrile-methanol was added to the removed medium, followed by brief vortexing and centrifugation at 16,000×g for 5 minutes at 4° C. The supernatant was used for the following analysis. The level of the metabolite resorufin was measured by high-performance liquid chromatography (HPLC) with a Luna C18 column (4.6×150 mm, 5 μm; Phenomenex, Seoul, Korea). The moving phase was composed of 20 mM phosphate buffer-methanol-acetonitrile (52:45:3, v/v/v), and the flow rate was 0.8 ml/minute. Fluorescence was measured at an excitation wavelength of 560 nm and an emission wavelength of 585 nm. Concentrations were calculated using a standard curve for resorufin normalized by the total cellular protein content measured using a BCA protein analysis kit (Thermo Fisher Scientific).

[4] = tested on: CYP1A1 mRNA
Experimental: 8. Quantitative Reverse Transcription PCR (RT-qPCR)
Total RNA was extracted from each sample using NucleoZOL reagent (Macherey-Nagel, Duren, Germany) and reverse transcription was performed using GoScript™ reverse transcription mix (Promega) according to the manufacturer's protocol. RT-qPCR was performed with SYBR Green Realtime PCR Master Mix (TOYOBO, Osaka, Japan) in StepOnePlus Real-Time PCR system (Applied Biosystems, Foster City, Calif., USA). PCR amplification was performed in triplicate for each sample. PCR results were expressed as relative fold change compared to the control cells after normalization with glyceraldehyde-3-phosphate dehydrogenase (GAPDH). The ΔCt (SΔCt) value was calculated as the difference between the Ct value obtained for GAPDH and the target gene. The ΔCt value of the control cells was used as the control ΔCt (CΔCt) value. The relative gene expression level was determined using the following formula: 2−(SΔCt−CΔCt).
After preparing cells for RNA extraction, RT-qPCR analysis for the expression of CYP1A1 mRNA was performed according to the above procedure. Dose-response curves were created by the least squares fitting method using GraphPad Prism 5 (GraphPad, San Diego, Calif., USA).

[5] = molecular target: T1, mouse AHR (Mus musculus, UniProt P30561); details: mouse AHR higher than human AHR; cited from earlier work
T1 sequence (P30561 10-848): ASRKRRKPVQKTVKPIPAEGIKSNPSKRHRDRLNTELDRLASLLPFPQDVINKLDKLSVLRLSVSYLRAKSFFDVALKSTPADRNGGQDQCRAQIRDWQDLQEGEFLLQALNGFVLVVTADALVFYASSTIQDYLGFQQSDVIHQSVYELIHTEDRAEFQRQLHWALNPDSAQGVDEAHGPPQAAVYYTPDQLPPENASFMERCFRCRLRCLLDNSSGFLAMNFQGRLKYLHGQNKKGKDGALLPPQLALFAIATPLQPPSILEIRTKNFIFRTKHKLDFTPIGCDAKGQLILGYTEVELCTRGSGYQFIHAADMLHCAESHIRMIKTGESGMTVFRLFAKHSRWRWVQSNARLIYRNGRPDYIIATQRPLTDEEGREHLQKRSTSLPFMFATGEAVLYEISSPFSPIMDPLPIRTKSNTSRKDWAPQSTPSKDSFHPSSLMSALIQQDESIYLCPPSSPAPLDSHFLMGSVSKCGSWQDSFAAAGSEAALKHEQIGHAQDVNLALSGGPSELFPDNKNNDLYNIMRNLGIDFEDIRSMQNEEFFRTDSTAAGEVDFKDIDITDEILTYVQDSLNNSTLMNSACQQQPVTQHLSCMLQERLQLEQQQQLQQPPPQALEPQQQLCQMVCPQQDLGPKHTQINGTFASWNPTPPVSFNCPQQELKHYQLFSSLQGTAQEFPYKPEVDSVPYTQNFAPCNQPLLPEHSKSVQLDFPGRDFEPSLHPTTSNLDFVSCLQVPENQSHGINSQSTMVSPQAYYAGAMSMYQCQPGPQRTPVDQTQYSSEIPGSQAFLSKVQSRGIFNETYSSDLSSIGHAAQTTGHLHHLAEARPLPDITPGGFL

Question: For `COc1ccc(/C=C/c2cc(OC)cc(=O)o2)cc1` [2-E05, yangonin], which “mCherry intensity compared to CH223191 and TMF” value [1] is on record?
Answer: significant decrease

Question: What about the “inhibition of the effect of TCDD on mCherry expression” value [1] of the same molecule?
Answer: at the levels of the non-treated control and CH223191

Question: And the “cell death (cell viability)” value [2]?
Answer: without cell death

Question: And the “inhibition of the effect of TCDD on CYP1A1 activity” value [3]?
Answer: at the levels of the non-treated control and CH223191

Question: For `COc1cc(/C=C/c2ccccc2)oc(=O)c1` [2-E06, desmethoxyyangonin], which “mCherry intensity compared to CH223191 and TMF” value [1] is on record?
Answer: significant decrease

Question: And the “inhibition of the effect of TCDD on mCherry expression” value [1]?
Answer: at the levels of the non-treated control and CH223191

Question: What about the “cell death (cell viability)” value [2] of the same molecule?
Answer: without cell death

Question: And the “inhibition of the effect of TCDD on CYP1A1 activity” value [3]?
Answer: at the levels of the non-treated control and CH223191

Question: Which “transcript expression levels of CYP1A1 and mCherry” value ([4]; co-treatment with BaP or TCDD, FIG. 7b) does the source give for `Cc1ccccc1N=Nc1ccc(NC(=O)c2ccnn2C)c(C)c1` [CH223191] here?
Answer: reduced

Question: Which results are given for `Clc1cc2c(cc1Cl)Oc1cc(Cl)c(Cl)cc1O2` [TCDD, 2,3,7,8-tetrachlorodibenzo-p-dioxin]?
Answer: mCherry intensity after treatment ([1]; CYP1A1-mCherry HLC, AHR agonist treatment, FIG. 6a): time-dependent increase; affinity of mouse AHR with TCDD compared to human AHR [5]: 10 fold; CYP1A1 activity ([3]; 60 minutes, FIG. 6b): increased

Question: Which “concentration of maximal induction” value [4] does the source give for `O=C(OCC(O)CO)c1ccccc1Nc1ccnc2cc(Cl)ccc12` (centres unmarked) [glafenine] here?
Answer: maximal induction at the concentrations used for screening

Question: And the “increase according to the dose (dose-response, CYP1A1 mRNA)” value ([4]; human)?
Answer: 6- to 7 fold

Question: With `CC(Cc1ccc(O)c(O)c1)C(C)Cc1ccc(O)c(O)c1` (centres unmarked) [nordihydroguaiaretic acid] as the molecule, how does the “effect according to the dose (dose-response, CYP1A1 mRNA)” value ([4]; human, 24 h) read?
Answer: ~ 2 times

Question: For `COc1ccc(Cc2nccc3cc(OC)c(OC)cc23)cc1OC` [papaverine hydrochloride], which “concentration of maximal induction” value [4] is on record?
Answer: maximal induction at the concentrations used for screening

Question: And the “increase according to the dose (dose-response, CYP1A1 mRNA)” value ([4]; human)?
Answer: 6- to 7 fold
